Entries after “also recorded” stand apart in the source; their conditions may differ.
Key:
[1] = tested on: NAD^+ depletion in HL-60 cell lysate; experiment: Whole cell assay screen: NAD+ depletion in H2O2-activated HL-60 cell lysate; assay type: cell-based
Method: To identify a non-toxic, non-DNA intercalating, cell permeable small molecule inhibitor of PARG, a high-throughput screen is devised. Given the severe challenges in isolating enough of the PAR substrate for an in vitro screen directly for PARG inhibition, we develop a primary screen that utilizes cell lysates and, in particular, mammalian cell lysates. In this assay, HL-60 cells are treated with H2O2 to damage their DNA (which activates PARP-1) and then lyse the cells. In individual wells of a 384-well plate, this cell lysate is incubated with 22,000 different small molecules from an in-house compound collection; these compounds are either purchased (from ChemBridge Corp.) or collected from various sources at the University of Illinois. (28) NAD^+ levels are measured using a fluorescent method based on the chemical conversion of NAD^+ to a fluorescent product (29, 30) (FIG. 14A). The amount of NAD^+ consumed in each well is monitored, and any compounds that prevent NAD^+ consumption are classified “hits” in this primary screen.
Library screen: 12.5 μL of Lysing PARP buffer (50 mM Tris, 10 mM MgCl2, pH 8.0, 1% Triton X-100) containing 100 μM NAD^+ is added to each well of a 384-well plate. Library compounds at 10 mM in DMSO are transferred using a 384-well pin transfer device that delivers 0.1 μL. HL-60 cells are spun down at 200 g for 5 min. and resuspended in Lysing PARP buffer to a concentration of 8×10^6 cells/mL. 10 μL of a 30% H2O2 solution is added per mL of cells. 12.5 μL of the activated cell lysate is added to the plates. The plates are incubated for 60 min. at 37° C. The concentration of NAD^+ is then determined using a fluorescent assay^1. 10 μL of a 2 M KOH solution and 10 μL of a 20% acetophenone solution (in ethanol) is added to each well. The plate is then incubated at 4° C. for 10 min. 45 μL of a 88% formic acid solution was added to each well. The plate was then incubated for 5 min. in a 110° C. oven. Once the plate cools, the fluorescent intensity of each well is determined on a Criterion Analyst AD (Molecular Devices) with an excitation of 360 nm and an emission of 445 nm.

[2] = tested on: primary dopaminergic neurons from the midbrain of embryonic rats; experiment: Protection of primary dopaminergic neurons from rotenone (TH/MAP2 immunocytochemistry); assay type: cell-based, rat; conditions: 100 nM rotenone, 48 h, % TH+ of MAP2+ cells
Method: With in vitro PARG inhibition, cell permeability, a structure-activity-relationship, and protection in cell culture models established, the protective properties of PIP-1 are evaluated in cultures of primary dopaminergic neurons taken from the midbrain of embryonic rats. After isolation, these neurons are treated with 100 nM rotenone and a range of PIP-1 concentrations. Cells are stained with antibodies to MAP2 and tyrosine hydroxylase (TH) to determine the proportion of dopaminergic neurons remaining.
Preparation of Primary Mesencephalic Cultures: Primary Midbrain Cultures are prepared using a modified version of a previously described protocol^2. All of the procedures involving animal handling are reviewed and approved by the Purdue Animal Care and Use Committee. […]
Treatment of primary cultures with rotenone and PIP-1: AraC-treated primary cultures are incubated in fresh media for 72 h. […] After 48 h, the cells are analyzed immunocytochemically as described below.
Immunocytochemistry: Primary cells are fixed in 4% (w/v) paraformaldehyde in PBS for 30 min. […] MAP2- and TH-immunoreactive primary neurons are counted in 10 randomly chosen observation fields for each experimental condition using a Nikon TE2000-U inverted fluorescence microscope at a total magnification of 200×. The data are expressed as the percentage of MAP2-positive neurons that are also TH-positive. […]

Compound | Inhibition of NAD+ depletion in the whole cell assay [1] | Protection of dopaminergic neurons from rotenone induced cell death [2]
CN(C)c1cnn(-c2ccccc2)c(=O)c1N [PIP-1, 4-Amino-5-dimethylamino-2-phenyl-2H-pyridazin-3-one] | inhibit NAD^+ depletion | considerable protection; also recorded: protects dopaminergic neurons from rotenone induced cell death
Nc1c(Cl)cnn(-c2ccccc2)c1=O [compound 5, 4-Amino-5-chloro-2-phenyl-2H-pyridazin-3-one] | do not inhibit NAD^+ depletion | no protection; also recorded: does not significantly protect
